Measurements as given in the supplement of paper PMC4862054.

What was measured:
Details in all cases: incubation time: 72 h
HDQ-P1 = assay: normalised viability (% of control), CellTiter-Blue; higher = more viable cells (about 100 = DMSO control)
Method in brief: (§1)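 The reported figure is normalised viability at a single listed concentration of the series. Breast cancer cell lines (20 µl suspension) went onto 384-well plates holding compound in 5 µl medium for 72 h. CellTiter-Blue (2.5 µl, 2 h, 37 °C) was read by fluorescence at 560/590 nm, and each plate was scaled to vehicle at 100 and a positive kill control at 0.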

CAL-85-1 [1] = assay: as above
Method in brief: as §1

MDA-MB-231 = assay: as above
Method in brief: as §1

MFM-223 = assay: as above
Method in brief: as §1

CAL-148 [2] = assay: as above
Method in brief: as §1

CAL-120 = assay: as above
Method in brief: as §1

BT-474 = assay: as above
Method in brief: as §1

HCC1143 [3] = assay: as above
Method in brief: as §1

Hs578T = assay: as above
Method in brief: as §1

MDA-MB-453 = assay: as above
Method in brief: as §1

BT-549 [4] = assay: as above
Method in brief: as §1

MDA-MB-468 = assay: as above
Method in brief: as §1

SK-BR-3 = assay: as above
Method in brief: as §1

CAL-51 [5] = assay: as above
Method in brief: as §1

MDA-MB-436 [6] = assay: as above
Method in brief: as §1

HCC1599 [7] = assay: as above
Method in brief: as §1

CAL-85-1 [8] = assay: drug sensitivity score (DSS), CellTiter-Glo (DSS (AUC-based score)); higher = stronger drug effect (viability inhibition or cytotoxicity); extreme values may be limits of the assay
Method in brief: (§2)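 Normalisation on every plate relied on 0.1 % DMSO and a positive kill control. The plates, 384-well format, held compound at 5 concentrations 10-fold apart across a compound-specific 10,000-fold range, and breast cancer cell lines in 20 µl suspension were incubated on them for 72 h before CellTox Green and then CellTiter-Glo readings. The drug sensitivity score derives from the area under the fitted dose-response curve.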

MCF-10A = assay: as above
Method in brief: as §2

CAL-148 [9] = assay: as above
Method in brief: as §2

HCC1143 [10] = assay: as above
Method in brief: as §2

BT-549 [11] = assay: as above
Method in brief: as §2

CAL-51 [12] = assay: as above
Method in brief: as §2

MDA-MB-436 [13] = assay: as above
Method in brief: as §2

HCC1599 [14] = assay: as above
Method in brief: as §2

Nc1cc(C(F)(F)F)c(-c2cc(N3CCOCC3)nc(N3CCOCC3)n2)cn1 [BKM-120]
normalised viability (HDQ-P1; 3 nM): 97.8% | normalised viability (HDQ-P1; 30 nM): 107% | normalised viability (HDQ-P1; 100 nM): 97.7% | normalised viability (CAL-85-1 [1]; 3 nM): 95.8% | normalised viability (CAL-85-1 [1]; 30 nM): 80.2% | normalised viability (CAL-85-1 [1]; 100 nM): 92% | normalised viability (MDA-MB-231; 10 nM): 94.2% | normalised viability (MDA-MB-231; 1000 nM): 69.1% | normalised viability (MDA-MB-231; 10000 nM): 15.3% | normalised viability (MFM-223; 10 nM): 92.2% | normalised viability (MFM-223; 1000 nM): 60.2% | normalised viability (MFM-223; 10000 nM): 14.5% | normalised viability (CAL-148 [2]; 3 nM): 94.3% | normalised viability (CAL-148 [2]; 30 nM): 104% | normalised viability (CAL-148 [2]; 100 nM): 98.7% | normalised viability (CAL-120; 10 nM): 81.1% | normalised viability (CAL-120; 1000 nM): 54.5% | normalised viability (CAL-120; 10000 nM): 13.5% | normalised viability (BT-474; 10 nM): 129% | normalised viability (BT-474; 1000 nM): 64.3% | normalised viability (BT-474; 10000 nM): 11.1% | normalised viability (HCC1143 [3]; 10 nM): 81.4% | normalised viability (HCC1143 [3]; 1000 nM): 72.8% | normalised viability (HCC1143 [3]; 10000 nM): 20.8% | normalised viability (Hs578T; 10 nM): 114% | normalised viability (Hs578T; 1000 nM): 88.7% | normalised viability (Hs578T; 10000 nM): 9.62% | normalised viability (MDA-MB-453; 3 nM): 111% | normalised viability (MDA-MB-453; 30 nM): 114% | normalised viability (MDA-MB-453; 100 nM): 96.7% | normalised viability (BT-549 [4]; 10 nM): 78.3% | normalised viability (BT-549 [4]; 1000 nM): 62.5% | normalised viability (BT-549 [4]; 10000 nM): 10.8% | normalised viability (MDA-MB-468; 10 nM): 97.7% | normalised viability (MDA-MB-468; 1000 nM): 78.7% | normalised viability (MDA-MB-468; 10000 nM): 15.3% | normalised viability (SK-BR-3; 10 nM): 101% | normalised viability (SK-BR-3; 1000 nM): 24.4% | normalised viability (SK-BR-3; 10000 nM): 9.47% | normalised viability (CAL-51 [5]; 3 nM): 100% | normalised viability (CAL-51 [5]; 30 nM): 92.1% | normalised viability (CAL-51 [5]; 100 nM): 84.3% | normalised viability (MDA-MB-436 [6]; 10 nM): 82.4% | normalised viability (MDA-MB-436 [6]; 1000 nM): 93.8% | normalised viability (MDA-MB-436 [6]; 10000 nM): 16.5% | normalised viability (HCC1599 [7]; 10 nM): 92.8% | normalised viability (HCC1599 [7]; 1000 nM): 63.6% | normalised viability (HCC1599 [7]; 10000 nM): 32.7%

Nc1cc(C(F)(F)F)c(-c2cc(N3CCOCC3)nc(N3CCOCC3)n2)cn1 [Buparlisib]
drug sensitivity score (CAL-85-1 [8]): 0 | drug sensitivity score (MCF-10A): 9.62 | drug sensitivity score (CAL-148 [9]): 0 | drug sensitivity score (HCC1143 [10]): 1.75 | drug sensitivity score (BT-549 [11]): 7.05 | drug sensitivity score (CAL-51 [12]): 7.02 | drug sensitivity score (MDA-MB-436 [13]): 0 | drug sensitivity score (HCC1599 [14]): 0

CNC(=O)c1ccc(N2C(=S)N(c3ccc(C#N)c(C(F)(F)F)c3)C(=O)C2(C)C)cc1F [Enzalutamide]
drug sensitivity score (CAL-85-1 [8]): 0 | drug sensitivity score (MCF-10A): 0 | drug sensitivity score (CAL-148 [9]): 0 | drug sensitivity score (HCC1143 [10]): 0 | drug sensitivity score (BT-549 [11]): 0 | drug sensitivity score (CAL-51 [12]): 6.69 | drug sensitivity score (MDA-MB-436 [13]): 0 | drug sensitivity score (HCC1599 [14]): 0

CCOC(=O)CCNc1cc(N2CCc3ccccc3CC2)nc(-c2ccccn2)n1 [GSK-J4]
drug sensitivity score (CAL-85-1 [8]): 15.1 | drug sensitivity score (MCF-10A): 12.1 | drug sensitivity score (CAL-148 [9]): 17.3 | drug sensitivity score (HCC1143 [10]): 12.5 | drug sensitivity score (BT-549 [11]): 22.2 | drug sensitivity score (CAL-51 [12]): 21.5 | drug sensitivity score (MDA-MB-436 [13]): 15.7 | drug sensitivity score (HCC1599 [14]): 12.1

Cc1cc(Nc2cc(CN3CCOCC3)c3nc(C)c(Cc4ccc(Cl)cc4F)n3n2)n[nH]1 [Gandotinib]
drug sensitivity score (CAL-85-1 [8]): 4.82 | drug sensitivity score (MCF-10A): 3.4 | drug sensitivity score (CAL-148 [9]): 0 | drug sensitivity score (HCC1143 [10]): 2.62 | drug sensitivity score (BT-549 [11]): 6.71 | drug sensitivity score (CAL-51 [12]): 9.68 | drug sensitivity score (MDA-MB-436 [13]): 4.83 | drug sensitivity score (HCC1599 [14]): 0

COC(=O)c1ccc2c(c1)NC(=O)/C2=C(\Nc1ccc(N(C)C(=O)CN2CCN(C)CC2)cc1)c1ccccc1 [Nintedanib]
drug sensitivity score (CAL-85-1 [8]): 0 | drug sensitivity score (MCF-10A): 8.49 | drug sensitivity score (CAL-148 [9]): 0 | drug sensitivity score (HCC1143 [10]): 2.02 | drug sensitivity score (BT-549 [11]): 8.24 | drug sensitivity score (CAL-51 [12]): 8.21 | drug sensitivity score (MDA-MB-436 [13]): 3.08 | drug sensitivity score (HCC1599 [14]): 0

CNC(=O)c1ccc(N2C(=S)N(c3ccc(C#N)c(C(F)(F)F)c3)C(=O)C23CCC3)cc1F [RD162]
drug sensitivity score (CAL-85-1 [8]): 0 | drug sensitivity score (MCF-10A): 0 | drug sensitivity score (CAL-148 [9]): 0 | drug sensitivity score (HCC1143 [10]): 0 | drug sensitivity score (BT-549 [11]): 0 | drug sensitivity score (CAL-51 [12]): 0 | drug sensitivity score (MDA-MB-436 [13]): 0 | drug sensitivity score (HCC1599 [14]): 0

COc1cc2c(NC3CCN(C(C)C)CC3)nc(N3CCC(F)(F)CC3)nc2cc1OCCCN1CCCC1 [UNC0642]
drug sensitivity score (CAL-85-1 [8]): 5.86 | drug sensitivity score (MCF-10A): 3.66 | drug sensitivity score (CAL-148 [9]): 3.63 | drug sensitivity score (HCC1143 [10]): 0 | drug sensitivity score (BT-549 [11]): 0 | drug sensitivity score (CAL-51 [12]): 0 | drug sensitivity score (MDA-MB-436 [13]): 4.42 | drug sensitivity score (HCC1599 [14]): 0
